Reference: article PMC6042386, “Molecular diversity and function of jasmintides from Jasminum sambac” (BMC Plant Biology, 2018)
Where a SMILES comes first, the peptide text is derived from it. Bridges are numbered along the chain shown (N, C = ends). [ ]: non-standard residue; d: D form. pGlu = O=C1CC[C@@H](C(=O)O)N1

How the values were obtained:
[1] = tested on: Tenebrio molitor mealworm larvae; assay: Feeding deterrent no-choice assay; assay type: in vivo; conditions: 24 h, 29 ± 1 °C in the dark, 30 larvae per concentration
Description: The antifeedant activity was examined using a no-choice assay. Oat flakes were soaked in different concentrations of jS3 (0.5 to 30 mg/g of oat) and lyophilized. The control diet was prepared in the same manner without addition of jS3. Ten T. molitor larvae of similar weights (41 ± 3 mg) were placed in a tissue culture dish with 500 mg of oats. The dishes were transferred into a rearing chamber and kept at 29 ± 1 °C in the dark. After 24 h, the remaining oat flakes were weighed, and the amount consumed was calculated. In total, 30 larvae were used for each concentration, and three independent biological experiments were performed. The feeding deterrence activity was determined as follows: Feeding Deterrence IndexFDI=C−T∗100/C+T
where C represents the average weight of consumed control diet and T represents the average weight of consumed treatment diet within the groups. The overall differences in feeding amounts were compared to the control and were compared to each other using one-way ANOVA.

[2] = Thermal stability assay (boiling water); assay type: physicochemical; conditions: boiling water (100 °C), quenched in ice bath 15 min, UPLC peak area before/after, monitored by MALDI-MS, three independent experiments, mean (n = 3), read-out: jasmintide remaining after thermal treatment
Description: (§1) For the thermal stability assay, jS3 were heated in boiling water for 1 h. At each time interval (1.0 h), a 30-μL sample was aliquoted and quenched in an ice bath for 15 min. For the acid stability assay, jS3 and jS4 were incubated in hydrochloric acid (pH 2.0) for 6 h. At each time interval (2, 4 and 6 h), a 30-μL sample was aliquoted and quenched by adding 1 M sodium hydroxide. For the enzymatic stability assay, jS3 and jS4 were incubated for 6 h at the optimal temperature with a buffer solution, as recommended by the manufacturer. At each time interval (2, 4 and 6 h), a 30-μL sample was aliquoted and quenched by adding 1 M hydrochloric acid. For the serum stability assay, jS3 were incubated with 25% human AB-type male serum in phenol red-free Dulbecco’s modified Eagle’s medium at 37 °C for 24 h. At each time interval (4, 8, 12 and 24 h), a 30-μL sample was aliquoted and quenched with 96% ethanol. Samples were kept at 4 °C for 15 min and then centrifuged at 18,000 rpm for 10 min. For all stability assays, the reaction mixture was analyzed by UPLC and monitored by MALDI-MS. The areas under the peak prior to and after treatment were integrated to determine stability. For each stability assay, three independent experiments were performed. At each time point, the sample was quenched by the specific reagent aforementioned and analyzed by UPLC in triplicates.

insect Sf9 cells = assay: Co-incubation of insect Sf9 cells with jS3 (morphology, mortality); assay type: cell-based; conditions: concentrations up to 100 μM, co-incubation (Figure S6)
[3] = Acid stability assay (hydrochloric acid, pH 2.0); assay type: physicochemical; conditions: hydrochloric acid pH 2.0, 37 °C, up to 6 h; quenched with 1 M sodium hydroxide; UPLC peak area, MALDI-MS; three independent experiments, mean (n = 3); read-out: jasmintide remaining under acidic conditions
Description: as §1

carboxypeptidase A = assay: Enzymatic stability assay, exopeptidase carboxypeptidase A; assay type: in vitro ADME; conditions: 37 °C, manufacturer's buffer, up to 6 h, quenched with 1 M hydrochloric acid, UPLC peak area, MALDI-MS, three independent experiments, mean (n = 3), read-out: jS3 remaining intact with carboxypeptidase A
Description: as §1

[4] = Human serum stability assay; assay type: in vitro ADME; conditions: 25% human AB-type serum; 25% human AB-type male serum in phenol red-free DMEM, 37 °C, up to 24 h; quenched with 96% ethanol; UPLC peak area, MALDI-MS; three independent experiments, mean (n = 3); read-out: jS3 remaining intact after incubation with human serum
Description: as §1

T. molitor larvae = assay: Effect of jasmintide on the growth of larvae; assay type: in vivo, Tenebrio molitor
Description: At day 0, 10 T. molitor larvae of similar weights (43 ± 2 mg and 47 ± 2 mg in the treatment and control sets, respectively) were fed 200 mg of a diet containing 1 mg of jS3/g of oats. Every three days, the weights of individual larva were recorded, and larvae were transferred to a new dish with the same amount of supplemented diet to maintain a continuous supply. Three independent biological experiments were carried out over a period of 9 days. The control diet was prepared in the same manner without the addition of jS3. Student’s t-test was used to compare the mean with the control.

trypsin = assay: Enzymatic stability assay, endopeptidase trypsin; assay type: in vitro ADME; conditions: 37 °C, manufacturer's buffer, up to 6 h, quenched with 1 M hydrochloric acid, UPLC peak area, MALDI-MS, three independent experiments, mean (n = 3), read-out: jS3 remaining intact with trypsin
Description: as §1

CC[C@H](C)[C@H](NC(=O)[C@H](CC(N)=O)NC(=O)[C@@H]1CSSC[C@@H]2NC(=O)[C@H](CC(=O)O)NC(=O)[C@H](CCCNC(=N)N)NC(=O)[C@H](CO)NC(=O)[C@H]([C@@H](C)O)NC(=O)[C@H](CCC(N)=O)NC(=O)[C@@H]3CSSC[C@H](NC(=O)[C@H](C(C)C)NC(=O)[C@H]([C@@H](C)O)NC(=O)[C@H](Cc4c[nH]c5ccccc45)NC(=O)[C@H]([C@@H](C)CC)NC(=O)[C@H]([C@@H](C)CC)NC(=O)[C@H](Cc4ccc(O)cc4)NC(=O)[C@H](CC(N)=O)NC2=O)C(=O)N[C@@H](CCCNC(=N)N)C(=O)N[C@@H](CC(=O)O)C(=O)NCC(=O)N[C@@H](CSSC[C@H](NC(=O)[C@H](CC(C)C)NC(=O)[C@@H]2CCC(=O)N2)C(=O)N[C@@H](CC(C)C)C(=O)N[C@@H](CC(C)C)C(=O)N3)C(=O)N1)C(=O)N[C@@H](CO)C(=O)O [jS3] ([pGlu]LCLLCQTSRDCNYIIWTVCRDGCCNIS-OH; disulfide 3-24, 6-20, 12-25; C-terminus assumed)
feeding deterrence index (FDI) ([1]; 1 mg/g of jasmintide in the diet (oat flakes), three independent experiments): 42.9%
feeding deterrence index (FDI) ([1]; 30 mg/g of jasmintide in the diet (oat flakes), highest value): 93.6%
remaining at 1 h [2]: > 92%
change in morphology and mortality rate of Sf9 cells (insect Sf9 cells): insignificant effects
remaining at 6 h [3]: > 90%
remaining at 6 h (carboxypeptidase A): > 80%
remaining at 24 h [4]: > 79%
average body weight of the treatment group after nine-day treatment (T. molitor larvae; after nine days on diet containing 1 mg of jS3 per gram of oat flakes, n = 30 larvae, significantly less than control (47.4 to 71.2 mg)): 62.2 mg
average body weight of the treatment group, start (T. molitor larvae; day 0, diet containing 1 mg of jS3 per gram of oat flakes, n = 30 larvae): 44.3 mg
fatality of larvae during the period of treatment (T. molitor larvae; nine-day treatment, 1 mg of jS3 per gram of oat flakes): No fatality
remaining at 6 h (trypsin): > 80%
